These results are taken from ChEMBL document CHEMBL1149646, “2D Quantitative structure-activity relationship studies on a series of cholesteryl ester transfer protein inhibitors” (Bioorg Med Chem, 2007).

This assay addresses T1, Cholesteryl ester transfer protein (Homo sapiens, UniProt P11597).
T1 sequence (P11597 whole entry): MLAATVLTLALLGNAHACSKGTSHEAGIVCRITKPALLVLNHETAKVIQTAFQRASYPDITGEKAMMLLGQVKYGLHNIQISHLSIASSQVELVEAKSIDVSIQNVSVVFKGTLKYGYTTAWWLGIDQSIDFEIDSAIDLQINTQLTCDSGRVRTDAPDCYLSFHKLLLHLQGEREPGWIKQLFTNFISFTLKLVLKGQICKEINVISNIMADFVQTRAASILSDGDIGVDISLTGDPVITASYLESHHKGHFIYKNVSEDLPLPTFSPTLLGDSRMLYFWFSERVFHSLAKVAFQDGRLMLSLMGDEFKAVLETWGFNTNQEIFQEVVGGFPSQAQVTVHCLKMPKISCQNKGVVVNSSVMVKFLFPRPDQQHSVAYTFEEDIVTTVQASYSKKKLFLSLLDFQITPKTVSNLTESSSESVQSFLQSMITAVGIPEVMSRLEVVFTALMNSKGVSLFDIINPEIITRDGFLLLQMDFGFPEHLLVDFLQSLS
The assay is described as follows: Inhibition of CETP.
As for `OC(CN(Cc1cccc(OC(F)(F)F)c1)c1cccc(Oc2ccccc2)c1)c1ccccc1` (centres undefined), the IC50 (as a rule, the point on the concentration scale where inhibition reaches its midpoint) was determined as 50000 nM. On to `OC(CN(Cc1cccc(OC(F)(F)C(F)F)c1)c1cccc(Oc2ccc(F)c(F)c2)c1)C(F)(F)F` (centres undefined), for which the IC50 amounted to 80 nM. Against the preceding compound, the IC50 is about 620-fold lower. Compound `Cc1cc(C)cc(Oc2cccc(CN(CC(O)C(F)(F)F)c3cccc(Oc4ccccc4)c3)c2)c1` (centres undefined) came in with an IC50 of 70 nM. As for `OC(CN(Cc1cccc2c1OC(F)(F)C(F)(F)O2)c1cccc(Oc2ccccc2)c1)C(F)(F)F` (centres undefined), the figure is 12000 nM; as for `OC(CN(Cc1cccc(OC(F)(F)C(F)F)c1)c1cccc(OCc2ccccc2CC(F)(F)F)c1)C(F)(F)F` (centres undefined), 90 nM. `CCCCC(O)CN(Cc1cccc(OC(F)(F)F)c1)c1cccc(Oc2ccccc2)c1` (centres undefined) came in with an IC50 of 3600 nM. This IC50 lies about 40-fold higher than the previous one. For the compound `OC(CN(Cc1cccc(OC(F)(F)C(F)F)c1)c1cccc(Oc2cccc(CC(F)(F)F)c2)c1)C(F)(F)F` (centres undefined), the half-inhibitory concentration (IC50) was determined as 30 nM. Regarding `CCCCc1ccc(Oc2cccc(N(Cc3cccc(OC(F)(F)C(F)F)c3)CC(O)C(F)(F)F)c2)cc1` (centres undefined), the IC50 stood at 200 nM. Compared with the last compound, the IC50 is about 6.7-fold higher. Compound `OC(CN(Cc1cccc(OC(F)(F)C(F)F)c1)c1cccc(OCc2ccccc2OC(F)(F)F)c1)C(F)(F)F` (centres undefined) returned an IC50 of 60 nM.

In turn, `OC(CN(Cc1cccc(-c2cccc(C(F)(F)F)n2)c1)c1cccc(Oc2ccccc2)c1)C(F)(F)F` (centres undefined) returned an IC50 of 4080 nM. In the case of `Cc1cccc(-c2cccc(CN(CC(O)C(F)(F)F)c3cccc(Oc4ccccc4)c3)c2)n1` (centres undefined), the IC50 was 15000 nM. This IC50 lies about 3.7-fold higher than the previous one. Compound `CC(C)(O)c1cccc(N(Cc2cccc(OC(F)(F)C(F)F)c2)CC(O)C(F)(F)F)c1` (centres undefined) came in with a half-inhibitory concentration (IC50) of 7800 nM. `OC(CN(Cc1cccc(OC(F)(F)C(F)F)c1)c1cccc(-c2ccncc2)c1)C(F)(F)F` (centres undefined) returned an IC50 of 6240 nM. The IC50 values of the last two compounds are within 1.5-fold of each other. As to `CC(C)(C)c1cccc(Oc2cccc(N(Cc3cccc(OC(F)(F)C(F)F)c3)CC(O)C(F)(F)F)c2)c1` (centres undefined), half-maximal inhibition (IC50) was put at 100 nM.
